This is an account of results in ChEMBL document CHEMBL4507311, “Data for DCP probe A-1155463” (2021).

Structures are written as SMILES.

By inhibition is commonly meant the drop in the measured response relative to a control, in per cent. The IC50 is the concentration at which inhibition is half-maximal. A low value points to greater potency in that assay.

Data set [1] addresses GABA-A receptor; alpha-1/beta-2/gamma-2 (Homo sapiens) (UniProt P14867+P47870+P18507). Briefly: GABAA1 (h) (alpha1,beta2,gamma2) Eurofins-Cerep binding assay. The settings on record: filed as agonist, Compound concentration 10.0 uM. It counts as protein-complex assay. Further details: ligand concentration 15 nM; call rule not given here.
In data set [2] the target is Neuropeptide Y receptor type 1 (Homo sapiens) (UniProt P25929). As to the kind of experiment: Y1 (h) Eurofins-Cerep binding assay. Further details: ligand concentration 0.025 nM. The settings on record: filed as agonist, Compound concentration 10.0 uM.
For data set [3], the target named is Sodium-dependent serotonin transporter (Homo sapiens) (UniProt P31645). Briefly: 5-HT transporter (h) Eurofins-Cerep binding assay. Further details: ligand concentration 2 nM. The settings on record: filed as antagonist, Compound concentration 10.0 uM.
Data set [4] concerns the target Glutamate NMDA receptor (Rattus norvegicus) (UniProt P35439+Q00959+Q00960+Q00961+Q62645+Q8VHN2+Q9R1M7). Briefly: NMDA Eurofins-Cerep binding assay. The settings on record: filed as antagonist, Compound concentration 10.0 uM. Further details: ligand concentration 5 nM. It counts as protein-complex assay.
Data set [5] addresses Calcitonin-gene-related peptide receptor, CALCRL/RAMP1 (Homo sapiens) (UniProt O60894+Q16602). Briefly: CGRP (h) Eurofins-Cerep binding assay. Further details: ligand concentration 0.03 nM. Particulars: filed as agonist, Compound concentration 10.0 uM. The data set is classed as protein-complex assay.
Data set [6] concerns the target Sodium-dependent dopamine transporter (Homo sapiens) (UniProt Q01959). Briefly: dopamine transporter (h) Eurofins-Cerep binding assay. Further details: ligand concentration 4 nM. The settings on record: filed as antagonist, Compound concentration 10.0 uM.
Data set [7] concerns the target MAO-A (amine oxidase [flavin-containing] A) (Rattus norvegicus, UniProt P21396). Briefly: MAO-A Eurofins-Cerep binding assay. Further details: incubation time 60 min, incubation temperature 37°C, ligand concentration 10 nM. The settings on record: rat cerebral cortex, probe [3H]Ro 41-1049 (10 nM), compound concentration 10 uM, read-out: % Inhibition of Control Specific Binding (Mean n=2).

The target of data set [8] is T1, Muscarinic acetylcholine receptor M2 (Homo sapiens) (UniProt P08172).
T1 sequence (whole entry): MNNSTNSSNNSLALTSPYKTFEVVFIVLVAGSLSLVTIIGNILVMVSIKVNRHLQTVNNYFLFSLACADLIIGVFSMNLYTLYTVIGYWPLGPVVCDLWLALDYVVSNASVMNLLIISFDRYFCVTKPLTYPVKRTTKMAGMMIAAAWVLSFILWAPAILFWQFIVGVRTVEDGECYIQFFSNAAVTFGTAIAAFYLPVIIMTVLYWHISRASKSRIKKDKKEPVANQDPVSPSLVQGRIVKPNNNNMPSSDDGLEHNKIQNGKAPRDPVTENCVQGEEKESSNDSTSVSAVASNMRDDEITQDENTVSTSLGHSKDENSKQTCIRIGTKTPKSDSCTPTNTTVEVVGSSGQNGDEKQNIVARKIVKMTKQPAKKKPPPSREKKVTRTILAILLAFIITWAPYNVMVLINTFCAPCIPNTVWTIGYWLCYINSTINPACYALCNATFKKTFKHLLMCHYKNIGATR
Briefly: M2 (h) Eurofins-Cerep binding assay. Further details: ligand concentration 2 nM. Particulars: filed as antagonist, Compound concentration 10.0 uM.

Data set [9] deals with T2, GABA-A receptor; anion channel (Rattus norvegicus) (UniProt O09028+P15431+P18506+P18508+P19969+P20236+P23574+P23576+P28471+P28473+P30191+P62813+P63079+P63138+Q91ZM7+Q9ES14). As to the kind of experiment: BZD (central) Eurofins-Cerep binding assay. Further details: ligand concentration 0.4 nM. It counts as protein-complex assay. Particulars: filed as agonist, Compound concentration 10.0 uM.

In data set [10] the target is Sodium-dependent noradrenaline transporter (Homo sapiens) (UniProt P23975). Briefly: norepinephrine transporter (h) Eurofins-Cerep binding assay. Particulars: filed as antagonist, Compound concentration 10.0 uM. Further details: ligand concentration 1 nM.
Data set [11] has as its target Induced myeloid leukemia cell differentiation protein Mcl-1 (Homo sapiens, UniProt Q07820). Briefly: Time-resolved fluorescence energy transfer (TR-FRET) with MCL1. In general terms: In TR-FRET formats the signal depends on donor and acceptor labels being close together.
The target in data set [12] is Acetylcholinesterase (Homo sapiens) (UniProt P22303). As to the kind of experiment: Acetylcholinesterase (h) Eurofins-Cerep enzyme and uptake assay. The settings on record: Compound concentration 10.0 uM.
The target in data set [13] is Glucocorticoid receptor (Homo sapiens) (UniProt P04150). As to the kind of experiment: GR (h) Eurofins-Cerep binding assay. Further details: ligand concentration 1.5 nM. The settings on record: filed as agonist, Compound concentration 10.0 uM.
Data set [14] addresses T3, 5-hydroxytryptamine receptor 2C (Homo sapiens) (UniProt P28335).
T3 sequence (whole entry): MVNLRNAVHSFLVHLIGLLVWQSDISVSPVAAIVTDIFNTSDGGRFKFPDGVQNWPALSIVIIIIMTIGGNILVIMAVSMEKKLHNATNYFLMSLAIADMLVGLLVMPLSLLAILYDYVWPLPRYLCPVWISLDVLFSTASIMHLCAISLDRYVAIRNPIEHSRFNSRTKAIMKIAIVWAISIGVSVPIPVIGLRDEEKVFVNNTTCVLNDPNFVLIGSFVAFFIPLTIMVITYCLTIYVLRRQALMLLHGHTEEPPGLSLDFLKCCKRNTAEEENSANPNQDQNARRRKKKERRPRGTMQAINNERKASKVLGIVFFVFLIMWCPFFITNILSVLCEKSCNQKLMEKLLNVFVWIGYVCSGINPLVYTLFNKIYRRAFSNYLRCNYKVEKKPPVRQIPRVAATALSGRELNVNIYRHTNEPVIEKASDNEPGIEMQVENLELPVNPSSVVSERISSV
Briefly: 5-HT2C (h) Eurofins-Cerep binding assay. Further details: ligand concentration 1 nM. The settings on record: filed as antagonist, Compound concentration 10.0 uM.

For data set [15], the target named is L-type Ca2+ channel (dihydropyridine site) (Rattus norvegicus, UniProt P22002+P27732+Q02485). Briefly: Ca2+ channel (L, dihydropyridine site) Eurofins-Cerep binding assay. It counts as protein assay. Further details: incubation time 90 min, incubation temperature RT, ligand concentration 0.1 nM. The settings on record: rat cerebral cortex, probe [3H]nitrendipine (0.1 nM), compound concentration 10 uM, read-out: % Inhibition of Control Specific Binding (Mean n=2).

For data set [16], the target named is Adenosine receptor A3 (Homo sapiens) (UniProt P0DMS8). As to the kind of experiment: A3 (h) Eurofins-Cerep binding assay. Further details: ligand concentration 0.15 nM. Particulars: filed as agonist, Compound concentration 10.0 uM.
Data set [17] concerns the target Peroxisome proliferator-activated receptor gamma (Homo sapiens) (UniProt P37231). As to the kind of experiment: PPARgamma (h) Eurofins-Cerep binding assay. Further details: ligand concentration 5 nM. The settings on record: filed as agonist, Compound concentration 10.0 uM.
Data set [18] has as its target Vasopressin V1a receptor (Homo sapiens) (UniProt P37288). Briefly: V1 a (h) Eurofins-Cerep binding assay. Further details: ligand concentration 0.3 nM. The settings on record: filed as agonist, Compound concentration 10.0 uM.
In data set [19] the target is Angiotensin-converting enzyme (Homo sapiens) (UniProt P12821). As to the kind of experiment: ACE (h) Eurofins-Cerep enzyme and uptake assay. The settings on record: Compound concentration 10.0 uM.
For data set [20], the target named is T4, 5-hydroxytryptamine receptor 1A (Homo sapiens) (UniProt P08908).
T4 sequence (whole entry): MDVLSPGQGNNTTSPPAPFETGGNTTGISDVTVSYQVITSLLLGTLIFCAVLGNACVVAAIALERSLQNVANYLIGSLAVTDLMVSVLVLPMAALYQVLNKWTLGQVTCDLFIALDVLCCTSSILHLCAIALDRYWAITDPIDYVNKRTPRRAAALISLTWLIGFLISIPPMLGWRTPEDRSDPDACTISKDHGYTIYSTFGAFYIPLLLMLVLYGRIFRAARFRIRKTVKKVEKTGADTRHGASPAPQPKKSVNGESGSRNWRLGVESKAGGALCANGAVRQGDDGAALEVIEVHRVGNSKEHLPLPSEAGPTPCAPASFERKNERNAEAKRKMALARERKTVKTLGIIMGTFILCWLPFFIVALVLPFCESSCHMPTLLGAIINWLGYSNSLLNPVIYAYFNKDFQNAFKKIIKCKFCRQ
Briefly: 5-HT1A (h) Eurofins-Cerep binding assay. Further details: ligand concentration 0.5 nM. The settings on record: filed as agonist, Compound concentration 10.0 uM.

For data set [21], the target named is Cannabinoid receptor 2 (Homo sapiens) (UniProt P34972). Briefly: CB2 (h) Eurofins-Cerep binding assay. The settings on record: filed as agonist, Compound concentration 10.0 uM. Further details: ligand concentration 0.8 nM.
Data set [22] addresses T2, GABA-A receptor; anion channel (Rattus norvegicus). Briefly: Cl- channel (GABA-gated) Eurofins-Cerep binding assay. The settings on record: filed as antagonist, Compound concentration 10.0 uM. It counts as protein-complex assay. Further details: ligand concentration 3 nM.
For data set [23], the target named is P2X receptor (Rattus norvegicus) (UniProt P51579+P49653+P51578+Q64663+P47824+P51577+P49654). Briefly: P2X Eurofins-Cerep binding assay. The data set is classed as protein assay. Further details: ligand concentration 3 nM. Particulars: filed as agonist, Compound concentration 10.0 uM.
Data set [24] concerns the target Urotensin-2 receptor (Homo sapiens) (UniProt Q9UKP6). As to the kind of experiment: UT (h) Eurofins-Cerep binding assay. The settings on record: filed as agonist, Compound concentration 10.0 uM. Further details: ligand concentration 0.1 nM.

Chain of Sodium-dependent noradrenaline transporter (Homo sapiens) (P23975 whole entry): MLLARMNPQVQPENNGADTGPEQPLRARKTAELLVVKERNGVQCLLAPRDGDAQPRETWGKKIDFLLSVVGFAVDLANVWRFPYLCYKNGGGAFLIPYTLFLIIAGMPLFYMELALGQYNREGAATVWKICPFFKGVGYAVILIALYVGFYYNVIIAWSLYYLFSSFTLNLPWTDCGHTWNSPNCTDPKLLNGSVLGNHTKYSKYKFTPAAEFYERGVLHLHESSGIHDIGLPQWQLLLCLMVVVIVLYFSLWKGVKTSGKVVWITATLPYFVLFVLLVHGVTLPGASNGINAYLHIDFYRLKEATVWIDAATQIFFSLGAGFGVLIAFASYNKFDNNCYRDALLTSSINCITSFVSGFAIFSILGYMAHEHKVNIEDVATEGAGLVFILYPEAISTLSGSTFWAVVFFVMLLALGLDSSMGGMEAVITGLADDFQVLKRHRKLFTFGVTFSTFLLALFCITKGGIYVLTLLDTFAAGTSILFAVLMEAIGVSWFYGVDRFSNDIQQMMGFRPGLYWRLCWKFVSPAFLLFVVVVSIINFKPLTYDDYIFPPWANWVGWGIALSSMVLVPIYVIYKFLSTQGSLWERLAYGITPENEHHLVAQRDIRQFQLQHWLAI
Chain of Vasopressin V1a receptor (Homo sapiens) (P37288 whole entry, looked up): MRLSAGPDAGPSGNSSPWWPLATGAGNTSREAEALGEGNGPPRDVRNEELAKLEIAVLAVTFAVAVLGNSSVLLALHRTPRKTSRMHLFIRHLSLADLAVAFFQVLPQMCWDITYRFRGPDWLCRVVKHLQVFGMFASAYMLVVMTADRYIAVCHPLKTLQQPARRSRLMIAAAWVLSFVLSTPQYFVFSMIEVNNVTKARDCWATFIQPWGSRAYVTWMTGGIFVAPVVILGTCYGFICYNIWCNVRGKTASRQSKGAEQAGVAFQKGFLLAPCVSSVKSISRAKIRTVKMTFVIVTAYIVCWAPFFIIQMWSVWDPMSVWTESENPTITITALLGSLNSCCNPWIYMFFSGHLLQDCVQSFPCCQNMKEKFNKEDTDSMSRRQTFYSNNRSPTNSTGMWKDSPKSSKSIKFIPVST
Chain of Sodium-dependent dopamine transporter (Homo sapiens) (Q01959 whole entry): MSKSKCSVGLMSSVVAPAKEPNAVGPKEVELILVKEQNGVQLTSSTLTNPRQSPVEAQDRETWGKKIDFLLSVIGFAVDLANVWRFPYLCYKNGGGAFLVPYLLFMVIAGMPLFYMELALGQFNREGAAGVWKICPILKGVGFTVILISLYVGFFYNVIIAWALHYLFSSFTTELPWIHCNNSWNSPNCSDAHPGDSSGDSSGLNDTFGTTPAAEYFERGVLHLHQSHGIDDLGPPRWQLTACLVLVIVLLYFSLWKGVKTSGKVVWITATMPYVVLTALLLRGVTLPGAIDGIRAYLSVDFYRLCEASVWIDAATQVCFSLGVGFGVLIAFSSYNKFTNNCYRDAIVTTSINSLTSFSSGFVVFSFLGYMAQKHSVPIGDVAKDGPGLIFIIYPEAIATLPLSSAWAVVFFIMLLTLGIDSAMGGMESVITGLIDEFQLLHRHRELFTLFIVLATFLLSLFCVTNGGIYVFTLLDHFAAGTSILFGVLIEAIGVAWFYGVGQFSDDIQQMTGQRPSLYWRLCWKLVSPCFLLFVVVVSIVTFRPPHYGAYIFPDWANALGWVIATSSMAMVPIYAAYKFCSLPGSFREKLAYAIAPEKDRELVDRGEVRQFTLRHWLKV
Chain of Cannabinoid receptor 2 (Homo sapiens) (P34972 whole entry): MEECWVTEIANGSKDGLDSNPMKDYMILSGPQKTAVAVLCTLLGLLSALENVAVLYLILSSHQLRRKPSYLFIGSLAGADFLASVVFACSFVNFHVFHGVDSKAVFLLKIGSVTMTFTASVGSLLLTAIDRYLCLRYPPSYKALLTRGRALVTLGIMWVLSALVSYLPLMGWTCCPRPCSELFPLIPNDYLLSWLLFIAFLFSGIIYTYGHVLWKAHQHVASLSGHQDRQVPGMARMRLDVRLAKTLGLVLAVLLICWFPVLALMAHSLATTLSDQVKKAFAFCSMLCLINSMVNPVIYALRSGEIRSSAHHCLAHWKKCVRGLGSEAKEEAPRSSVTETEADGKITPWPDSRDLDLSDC
Chain of Urotensin-2 receptor (Homo sapiens) (Q9UKP6 whole entry): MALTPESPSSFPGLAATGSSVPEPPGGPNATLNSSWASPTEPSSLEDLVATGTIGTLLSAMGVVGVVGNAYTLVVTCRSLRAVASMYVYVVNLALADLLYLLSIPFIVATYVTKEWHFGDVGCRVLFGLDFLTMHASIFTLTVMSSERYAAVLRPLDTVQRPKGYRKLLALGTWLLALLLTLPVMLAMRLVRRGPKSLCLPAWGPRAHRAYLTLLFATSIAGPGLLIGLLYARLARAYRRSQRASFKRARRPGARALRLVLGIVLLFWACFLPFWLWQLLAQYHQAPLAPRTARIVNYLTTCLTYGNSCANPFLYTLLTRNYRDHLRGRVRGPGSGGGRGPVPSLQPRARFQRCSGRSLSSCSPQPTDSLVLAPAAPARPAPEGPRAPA
Chain of Adenosine receptor A3 (Homo sapiens) (P0DMS8 whole entry): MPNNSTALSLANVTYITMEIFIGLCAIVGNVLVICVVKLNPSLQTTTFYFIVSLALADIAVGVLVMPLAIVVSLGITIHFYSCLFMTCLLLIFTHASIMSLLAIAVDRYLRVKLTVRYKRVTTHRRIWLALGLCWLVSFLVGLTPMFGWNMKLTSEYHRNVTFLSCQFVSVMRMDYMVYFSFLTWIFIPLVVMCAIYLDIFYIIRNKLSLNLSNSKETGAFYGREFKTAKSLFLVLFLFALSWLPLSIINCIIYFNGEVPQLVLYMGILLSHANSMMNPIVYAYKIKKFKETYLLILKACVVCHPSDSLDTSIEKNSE
Chain of Angiotensin-converting enzyme (Homo sapiens) (P12821 whole entry): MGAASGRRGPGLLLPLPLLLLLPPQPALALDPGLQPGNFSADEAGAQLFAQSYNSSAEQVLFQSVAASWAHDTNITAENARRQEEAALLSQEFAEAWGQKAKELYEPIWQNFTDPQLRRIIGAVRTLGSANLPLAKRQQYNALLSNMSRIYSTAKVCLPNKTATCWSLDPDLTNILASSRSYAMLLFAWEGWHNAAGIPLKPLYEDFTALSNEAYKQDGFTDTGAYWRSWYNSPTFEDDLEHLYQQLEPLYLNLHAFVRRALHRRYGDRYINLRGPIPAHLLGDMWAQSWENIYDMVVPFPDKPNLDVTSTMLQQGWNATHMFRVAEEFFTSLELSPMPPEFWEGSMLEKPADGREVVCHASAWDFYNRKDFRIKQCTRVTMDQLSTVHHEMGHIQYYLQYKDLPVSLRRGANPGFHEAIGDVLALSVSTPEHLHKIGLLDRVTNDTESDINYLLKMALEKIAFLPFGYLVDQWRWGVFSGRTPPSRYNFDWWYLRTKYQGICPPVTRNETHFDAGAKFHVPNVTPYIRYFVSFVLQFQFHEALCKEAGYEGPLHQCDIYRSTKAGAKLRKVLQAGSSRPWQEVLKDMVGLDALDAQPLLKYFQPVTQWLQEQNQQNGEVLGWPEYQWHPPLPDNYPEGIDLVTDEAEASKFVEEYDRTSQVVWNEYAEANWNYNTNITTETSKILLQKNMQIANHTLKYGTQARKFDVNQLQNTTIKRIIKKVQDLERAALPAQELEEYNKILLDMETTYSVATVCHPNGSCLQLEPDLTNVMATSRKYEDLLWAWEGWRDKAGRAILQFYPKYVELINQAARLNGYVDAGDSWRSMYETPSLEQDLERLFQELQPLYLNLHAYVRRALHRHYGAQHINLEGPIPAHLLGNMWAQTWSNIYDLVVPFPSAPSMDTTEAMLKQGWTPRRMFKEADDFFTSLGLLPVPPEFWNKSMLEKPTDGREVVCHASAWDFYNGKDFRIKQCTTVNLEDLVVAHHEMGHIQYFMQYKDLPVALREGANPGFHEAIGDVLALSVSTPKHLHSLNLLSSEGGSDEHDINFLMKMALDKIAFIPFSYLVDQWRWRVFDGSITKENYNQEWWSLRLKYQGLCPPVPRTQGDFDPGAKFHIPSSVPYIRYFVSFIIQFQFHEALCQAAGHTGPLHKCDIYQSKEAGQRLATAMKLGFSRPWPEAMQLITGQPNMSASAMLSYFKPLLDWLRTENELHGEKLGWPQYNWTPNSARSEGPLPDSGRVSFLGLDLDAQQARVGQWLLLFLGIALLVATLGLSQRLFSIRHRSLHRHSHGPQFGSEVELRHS
Chain of Sodium-dependent serotonin transporter (Homo sapiens) (P31645 whole entry, looked up): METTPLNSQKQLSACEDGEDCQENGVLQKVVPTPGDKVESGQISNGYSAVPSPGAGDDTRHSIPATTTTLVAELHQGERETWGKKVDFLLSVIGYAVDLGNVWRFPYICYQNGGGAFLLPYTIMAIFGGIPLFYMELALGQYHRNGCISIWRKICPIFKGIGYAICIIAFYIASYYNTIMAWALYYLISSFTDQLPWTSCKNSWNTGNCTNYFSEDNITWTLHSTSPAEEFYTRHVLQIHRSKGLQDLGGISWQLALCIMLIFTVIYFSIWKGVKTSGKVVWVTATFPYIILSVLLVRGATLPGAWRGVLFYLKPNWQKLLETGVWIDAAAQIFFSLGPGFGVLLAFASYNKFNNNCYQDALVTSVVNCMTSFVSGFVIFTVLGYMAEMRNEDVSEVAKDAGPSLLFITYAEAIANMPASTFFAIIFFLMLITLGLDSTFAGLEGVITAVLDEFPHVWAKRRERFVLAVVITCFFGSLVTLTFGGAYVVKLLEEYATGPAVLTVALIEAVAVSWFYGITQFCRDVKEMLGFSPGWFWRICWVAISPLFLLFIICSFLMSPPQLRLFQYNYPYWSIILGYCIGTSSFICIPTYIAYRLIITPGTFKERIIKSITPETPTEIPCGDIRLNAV
Chain of Induced myeloid leukemia cell differentiation protein Mcl-1 (Q07820 whole entry): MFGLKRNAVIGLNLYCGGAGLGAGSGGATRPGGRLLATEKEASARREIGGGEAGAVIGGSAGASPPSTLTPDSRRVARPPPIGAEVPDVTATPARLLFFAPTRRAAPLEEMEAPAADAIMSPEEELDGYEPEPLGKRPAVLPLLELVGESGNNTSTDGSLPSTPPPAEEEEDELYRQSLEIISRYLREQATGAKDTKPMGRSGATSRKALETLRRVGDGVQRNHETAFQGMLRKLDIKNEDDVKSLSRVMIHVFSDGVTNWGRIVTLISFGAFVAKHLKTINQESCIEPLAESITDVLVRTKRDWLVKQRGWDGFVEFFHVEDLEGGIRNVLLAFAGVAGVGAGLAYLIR

In the case of `CN(C)CC#Cc1ccc(OCCCc2sc(N3CCc4cccc(C(=O)Nc5nc6ccccc6s5)c4C3)nc2C(=O)O)c(F)c1` [A-1155463], the % Inhibition of Control Specific Binding (Mean n=2) is -2.9% in data set [1]; 12.5% in data set [2]; 8.5% in data set [3]; 21.6% in data set [4]; -6.8% in data set [5]; 31.6% in data set [6]. Moreover, the % Inhibition of Control Specific Binding (Mean n=2) in data set [8] is 28.6%; in data set [9], 18.1%; in [10], 20.9%; in data set [13], 37.8%; in data set [14] it was 4.7%; in [16], 71.6%. Moreover, the % Inhibition of Control Specific Binding (Mean n=2) in data set [17] is 99.1%; in data set [18], 5.3%; in [20], 32.2%; in data set [21], 4.1%; in [22], 9.9%; in data set [23], 13.5%. Further, in data set [24], the % Inhibition of Control Specific Binding (Mean n=2) was 94.9%. Also, the inhibition at 60 min, 10 µM in [7] was found to be 74.5%. Also, the IC50 in data set [11] is listed as 14 µM (not active). Also, the results for the % Inhibition of Control Values (Mean n=2) in [12] and in [19] were 7.1% and 22.1%, respectively. Besides, the inhibition at 90 min, 10 µM in data set [15] is -21.8%.

`O=C(Nc1nc2ccccc2s1)c1cccc2c1CN(c1nc(C(=O)O)c(CCOc3ccc(-n4ncc5cncnc54)cc3)s1)CC2` [A-1107969]: the % Inhibition of Control Specific Binding (Mean n=2) is -19.5% in [1]; -0.4% in data set [2]; -2.3% in [3]; 7.8% in data set [4]; -9.4% in data set [5]; 3.6% in data set [6]. In addition, the % Inhibition of Control Specific Binding (Mean n=2) in data set [8] is -7.3%; in data set [9], 17.3%; in [10] it was -4%; in data set [13], 55.4%; in data set [14], 1.7%; in data set [16], 54%. In addition, the % Inhibition of Control Specific Binding (Mean n=2) is 98.2% in data set [17]; 4.8% in [18]; -1% in [20]; -9.9% in data set [21]; 11.2% in [22]; -0.4% in data set [23]. Also, the % Inhibition of Control Specific Binding (Mean n=2) in data set [24] amounted to 62.2%. In data set [7], the inhibition at 60 min, 10 µM came out at 11.1%. In addition, in data set [11], the IC50 is 2 µM (not active). Further, the values for the % Inhibition of Control Values (Mean n=2) in data set [12] and in data set [19] were 14.5% and -17%, respectively. Besides, the inhibition at 90 min, 10 µM in [15] was -2.2%.
